Literature values in US20260097000A1, “INTRANASAL DELIVERY OF CANNABINOIDS” (priority 2022, published 2026).

Columns and labels:
[1] = oral delivery
[2] = rats, oral 10 mg kg^−1 and pulmonary 20 mg kg^−1

C=C(C)[C@@H]1CCC(C)=C[C@H]1c1c(O)cc(CCCCC)cc1O [CBD, cannabidiol]
7-hydroxy-cannabidiol (7-OH-CBD) metabolite share of orally delivered CBD [1]: 40% | CBD levels in the brain [2]: 200 to 300 ng/g
